Article PMC10218941, “Design, Synthesis, Antiproliferative Actions, and DFT Studies of New Bis–Pyrazoline Derivatives as Dual EGFR/BRAF^V600E Inhibitors” (International Journal of Molecular Sciences, 2023)

System: A-549 (lung cancer cell line)
Test: Antiproliferative assay (MTT), A-549
Assay type: cell-based
Details: Homo sapiens, A549; read-out: Antiproliferative Activity IC50 ± SEM (µM) A-549
Method: The antiproliferative activity of pyrazoline hybrids 8–17 was tested against the four human cancer cell lines Panc-1 (pancreatic cancer cell line), MCF-7 (breast cancer cell line), HT-29 (colon cancer cell line), and A-549 (lung cancer cell line) using the MTT assay and doxorubicin as the reference drug. See Appendix SA (Supplementary File).
4.2. Biological evaluation
4.2.1. Cytotoxic activity using MTT Assay and evaluation of IC50 […]
96-well flat-bottomed cell culture plates were used to seed the cells at a […]
of 10^4 cells mL-1. The medium was aspirated from all the wells of culture plates after 24 h followed by the addition of synthesized compounds (in 200 μL medium to yield a final concentration of 0.1% (v/v) dimethyl sulfoxide) into individual wells of the plates. Four wells were designated to a single compound. The plates were allowed to incubate at 37°C for 96 h. Afterwards, the medium was aspirated and 3 -[4,5-dimethylthiazol-2-yl]-2,5-diphenyltetrazolium bromide (MTT) (0.4 mg/mL) in medium was added to each well and subsequent ly incubated for 3 h. The medium was aspirated and 150 μL dimethyl sulfoxide (DMSO) was added to each well. The plates were vortexed followed by the measurement of absorbance at 540 nm on a microplate reader. The results were presented as inhibition (%) of proliferation in contrast to controls comprising 0.1% 4.2.1.2. Assay for antiproliferative effect
To explore the antiproliferative potential of compounds propidium iodide fluorescence assay was performed using different cell lines such as Panc -1 (pancreas cancer cell line), MCF-7 (breast cancer cell line), HT-29 (colon cancer cell line) and A-549 (epithelial cancer cell line), respectively. To calculate the total nuclear DNA, a fluorescent dye (propidium iodide, PI) is used which can attach to the DNA, thus offering a quick and precise technique. PI cannot pass through the cell membrane and its signal intensity can be considered as directly proportional to quantity of cellular DNA. Cells whose cell membranes are damaged or have changed permeability are counted as dead ones. The assay was performed by seeding the cells of different cell lines at a density of 3000-7500 cells/well (in200μl medium) in culture plates followed by incubation for 24h at 37 °C in humidified 5%CO2/95% air atmospheric conditions. The medium was removed; the compounds were added to the plates at 10 μM concentrations (in 0.1% DMSO) in triplicates, followed by incubation for 48h. DMSO (0.1%) was used as control. After incubation, medium was removed followed by the addition of PI (25 μl, 50μg/mL in water/medium) to each well of the plates. At - 80 °C, the plates were allowed to freeze for 24 h, followed by thawing at 25 °C. A fluorometer (Polar-Star BMG Tech) was used to record the readings at excitation and emission wavelengths of 530 and 620 nm for each well. The percentage cytotoxicity of compounds was calculated using […]
Where ATC= Absorbance of treated cells and AC= Absorbance of control. Erlotinib was used as positive control in the assay. […]

IC50 | Compound
1 ± 0.1 µM | COc1ccc(C2CC(c3ccc(OCC(=O)Nc4ccc(C5=NNC(c6ccc(OC)c(OC)c6)C5)cc4)cc3)=NN2)cc1 (centres unmarked) [Compound 12, 2-(4-(5-(4-Methoxyphenyl)-4,5-dihydro-1H-pyrazol-3-yl)phenoxy)-N-(4-(5-(3,4-dimethoxyphenyl)-4,5-dihydro-1H-pyrazol-3-yl)phenyl)acetamide]
1.2 ± 0.1 µM | COc1ccc(C2CC(c3ccc(NC(=O)COc4ccc(C5=NNC(c6ccc(OC)c(OC)c6)C5)cc4)cc3)=NN2)cc1 (centres unmarked) [Compound 17, 2-(4-(5-(3,4-Dimethoxyphenyl)-4,5-dihydro-1H-pyrazol-3-yl)phenoxy)-N-(4-(5-(4-methoxyphenyl)-4,5-dihydro-1H-pyrazol-3-yl)phenyl)acetamide]
